Target: T1, Phosphatidylinositol 4,5-bisphosphate 3-kinase catalytic subunit delta isoform (Homo sapiens, UniProt O00329)
T1 sequence (O00329 whole entry): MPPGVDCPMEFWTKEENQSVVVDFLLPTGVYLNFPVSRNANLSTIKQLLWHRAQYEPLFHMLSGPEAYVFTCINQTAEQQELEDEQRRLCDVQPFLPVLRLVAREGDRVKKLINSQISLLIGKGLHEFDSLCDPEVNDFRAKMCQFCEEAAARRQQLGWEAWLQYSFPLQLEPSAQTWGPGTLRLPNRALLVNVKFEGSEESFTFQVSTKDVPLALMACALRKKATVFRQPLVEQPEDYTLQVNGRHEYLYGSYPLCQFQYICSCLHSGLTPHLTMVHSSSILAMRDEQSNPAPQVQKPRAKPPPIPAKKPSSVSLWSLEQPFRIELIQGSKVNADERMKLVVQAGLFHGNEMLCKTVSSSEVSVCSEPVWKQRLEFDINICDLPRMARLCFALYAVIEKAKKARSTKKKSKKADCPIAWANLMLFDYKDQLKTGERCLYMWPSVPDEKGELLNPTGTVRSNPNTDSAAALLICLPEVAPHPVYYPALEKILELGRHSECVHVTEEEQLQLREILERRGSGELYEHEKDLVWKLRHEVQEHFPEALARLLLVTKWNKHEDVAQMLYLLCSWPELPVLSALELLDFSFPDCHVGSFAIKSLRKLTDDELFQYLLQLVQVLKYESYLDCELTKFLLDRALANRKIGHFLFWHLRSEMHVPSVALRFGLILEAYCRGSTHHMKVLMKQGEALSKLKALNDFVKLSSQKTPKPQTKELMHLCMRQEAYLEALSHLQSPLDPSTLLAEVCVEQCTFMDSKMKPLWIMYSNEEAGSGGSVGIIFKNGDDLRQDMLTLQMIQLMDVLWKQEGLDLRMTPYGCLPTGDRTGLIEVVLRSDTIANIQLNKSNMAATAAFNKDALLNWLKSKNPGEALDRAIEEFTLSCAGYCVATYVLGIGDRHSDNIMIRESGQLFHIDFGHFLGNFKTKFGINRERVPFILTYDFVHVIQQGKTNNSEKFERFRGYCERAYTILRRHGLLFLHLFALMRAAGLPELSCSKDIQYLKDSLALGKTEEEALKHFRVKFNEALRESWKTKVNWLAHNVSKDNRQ
Assay: Scintillation Proximity Assay: PI3Kδ:The kinase reaction was conducted in polystyrene 384-well matrix white plate from Thermo Fisher Scientific in a final volume of 25 μL. Inhibitors were first diluted serially in DMSO and added to the plate wells before the addition of other reaction components. The final concentration of DMSO in the assay was 0.5%. The PI3K assays were carried out at room temperature in 20 mM MOPS, pH 6.7, 10 mM MgCl2, 5 mM DTT and CHAPS 0.03%. Reactions were initiated by the addition of ATP, the final reaction mixture consisted of 20 μM PIP2, 20 μM ATP, 0.2 μCi [γ-33P] ATP, 4 nM PI3Kδ. Reactions were incubated for 210 min and terminated by the addition of 40 μL SPA beads suspended in quench buffer: 150 mM potassium phosphate pH 8.0, 20% glycerol. 25 mM EDTA, 400 μM ATP. The final concentration of SPA beads was 1.0 mg/mL. After the plate sealing, plates were shaken overnight at room temperature and centrifuged at 1800 rpm for 10 minutes, the radioactivity of the product was determined by scintillation counting on Topcount (Perkin-Elmer).

In the case of `N#CCC(C1CCN(c2nc3cccnc3o2)C1)n1cc(-c2ncnc3[nH]ccc23)cn1` (stereo unspecified), the IC50 is reported as < 10 nM.

From ChEMBL document CHEMBL5727416, “Bicyclic heteroarylaminoalkyl phenyl derivatives as PI3K inhibitors” (2019)
